Our source for the MIC values is DBAASP.

Test systems include Escherichia coli DL7; Bacillus subtilis PS832; Escherichia coli HB101; Escherichia coli ML-35; Bacillus megaterium Bm11; Escherichia coli D21.
What all share (assay): ≥ marks a high value that may be exact or a test limit, other limits are often not marked, values filed in µg/mL are converted to µM
Test [1] deals with Klebsiella aerogenes ATCC 13048.
For test [2], the system named is Staphylococcus aureus ATCC 25923.
The test system of test [3] is Staphylococcus epidermidis ATCC 12228.
Test [4] concerns Pseudomonas aeruginosa ATCC 27853.
For test [5], the system named is Escherichia coli ATCC 25922.
Test [6] relates to Staphylococcus aureus ATCC 9144.
For test [7], the system named is Corynebacterium glutamicum ATCC 13032.
Test [8] concerns Klebsiella pneumoniae ATCC 700603.
The subject of test [9] is Enterococcus faecium ATCC 700221.
The test system of test [10] is Acinetobacter baumannii ATCC BAA-1605.
The test system of test [11] is Staphylococcus aureus ATCC 33591.
Test [12] relates to Salmonella enterica subsp. enterica serovar Typhimurium ATCC 14028.
The subject of test [13] is Serratia marcescens ATCC 8100.
Test [14] relates to Candida albicans ATCC 10231.
Test [15] relates to Saccharomyces cerevisiae ATCC 44774.
Test [16] deals with Streptococcus mutans ATCC 25175.
The subject of test [17] is Staphylococcus aureus ATCC 15752.
For test [18], the system named is Bacillus subtilis ATCC 62037.
Test [19] concerns Pseudomonas putida ATCC 17426.
In test [20] the test system is Cryptococcus neoformans ATCC 34881.
The subject of test [21] is Salmonella enterica subsp. enterica serovar Enteritidis ATCC 13076.
Test [22] concerns Escherichia coli ATCC 27325.
The subject of test [23] is Trichosporon beigelii KCTC 7707.
Test [24] deals with Escherichia coli KCTC 1682.
Test [25] deals with Saccharomyces cerevisiae KCTC 7296.
Test [26] deals with Bacillus subtilis KCTC 1918.
Test [27] deals with Pseudomonas aeruginosa KCTC 1637.
Test [28] has as its system Candida albicans KCTC 7270.
The subject of test [29] is Staphylococcus epidermidis KCTC 1917.
The test system of test [30] is Staphylococcus aureus KCTC 1621.
The test system of test [31] is Salmonella typhimurium KCTC 1926.

Molecules are shown by their SMILES. In brackets after ≈: the same amount, converted by molar mass. Several values for one entry are separate records, joined by “and”; a condition that tells them apart may be missing. Identical values can stand only once.

What is called MIC is the lowest concentration found to suppress growth. Higher therefore signals weaker potency. `CC(C)C[C@H](NC(=O)[C@H](CCCCN)NC(=O)[C@H](C)NC(=O)[C@H](CC(C)C)NC(=O)[C@H](CCCCN)NC(=O)[C@H](CCCCN)NC(=O)[C@H](C)NC(=O)[C@H](CC(C)C)NC(=O)[C@H](CCCCN)NC(=O)[C@H](C)NC(=O)[C@H](CC(C)C)NC(=O)[C@@H](N)CCCCN)C(=O)N[C@@H](C)C(=O)N[C@@H](CCCCN)C(N)=O` [KLAKLAKKLAKLAK]: the MIC was at least 32 µM in test [1]; 1 µM (≈ 1.52 µg/mL) against Escherichia coli DL7; 6 µM (≈ 9.14 µg/mL) in test [2]; 4 µM (≈ 6.09 µg/mL) in [3]; 6 µM (≈ 9.14 µg/mL) in test [4]; 0.5 µM and 0.25 µM in the test on Bacillus subtilis PS832. The MIC in test [5] amounted to 6 µM (≈ 9.14 µg/mL).
Consider `CC(C)C[C@H](NC(=O)[C@H](CCCCN)NC(=O)[C@H](C)NC(=O)[C@H](CC(C)C)NC(=O)[C@H](CCCCN)NC(=O)[C@H](CCCCN)NC(=O)[C@H](C)NC(=O)[C@H](CC(C)C)NC(=O)[C@H](CCCCN)NC(=O)[C@H](C)NC(=O)[C@H](CC(C)C)NC(=O)[C@H](CCCCN)NC(=O)[C@H](Cc1cnc[nH]1)NC(=O)[C@H](C)NC(=O)[C@@H](N)CC(=O)O)C(=O)N[C@@H](C)C(=O)N[C@@H](CCCCN)C(N)=O` [DAHKLAKLAKKLAKLAK], for which the MIC in test [1] is at least 32 µM; against Escherichia coli DL7 it was 0.25 µM (≈ 0.462 µg/mL); in [3] it was 4 µM (≈ 7.39 µg/mL); against Bacillus subtilis PS832 it was 0.25 µM and 0.5 µM.
In the case of `CC[C@H](C)[C@H](NC(=O)[C@@H]1CCCN1C(=O)[C@H](CCCCN)NC(=O)[C@@H]1CCCN1C(=O)[C@H](CCCN=C(N)N)NC(=O)CNC(=O)[C@@H]1CCCN1C(=O)[C@H](Cc1ccccc1)NC(=O)[C@@H]1CCCN1C(=O)[C@H](CCCN=C(N)N)NC(=O)[C@@H]1CCCN1C(=O)[C@H](CCCN=C(N)N)NC(=O)CNC(=O)[C@@H]1CCCN1C(=O)[C@@H](N)CO)C(=O)N[C@@H](Cc1ccccc1)C(=O)N[C@@H](CCCN=C(N)N)C(=O)N1CCC[C@H]1C(=O)N[C@@H](CCCN=C(N)N)C(=O)O` [SPGRPRPFPGRPKPIFRPR], the MIC is at least 100 µM in test [6]; above 100 µM in [4]; 6.3 µM (≈ 14 µg/mL) in test [7]; at least 100 µM with Escherichia coli HB101; above 100 µM in test [5].
`CC[C@H](C)[C@H](NC(=O)[C@H](CCCCN)NC(=O)[C@H](CCCCN)NC(=O)[C@H](Cc1ccccc1)NC(=O)[C@H](CC(C)C)NC(=O)[C@H](CCCN=C(N)N)NC(=O)[C@@H](N)CCCN=C(N)N)C(=O)N[C@@H](CC(C)C)C(=O)N[C@@H](CCCCN)C(=O)N[C@@H](Cc1ccc(O)cc1)C(=O)N[C@@H](CC(C)C)C(N)=O` [RRLFKKILKYL]: the MIC in test [8] amounted to 11.5 µM (≈ 17 µg/mL); in test [9], 11.5 µM (≈ 17 µg/mL); in [10] it was 3.04 µM (≈ 4.5 µg/mL); in test [4] it was 11.5 µM (≈ 17 µg/mL); in test [11], 23.3 µM (≈ 34.5 µg/mL); in test [5], 23.3 µM (≈ 34.5 µg/mL).
As for `CC(C)C[C@H](NC(=O)[C@H](Cc1ccc(O)cc1)NC(=O)[C@@H]1CCCN1C(=O)[C@@H]1CCCN1C(=O)[C@H](CCCN=C(N)N)NC(=O)[C@@H]1CCCN1C(=O)[C@H](CC(N)=O)NC(=O)[C@H](CC(N)=O)NC(=O)[C@@H](N)CC(N)=O)C(=O)N1CCC[C@H]1C(=O)N[C@@H](CCCN=C(N)N)C(=O)N1CCC[C@H]1C(=O)N[C@@H](CCCN=C(N)N)C(=O)N1CCC[C@H]1C(=O)N1CCC[C@H]1C(=O)O` [NNNPRPPYLPRPRPP], the MIC in test [3] is above 64 µM; against Escherichia coli ML-35, at least 64 µM; in the test with Bacillus megaterium Bm11, at least 64 µM; in test [12], above 64 µM; in test [13], at least 64 µM; in the test on Escherichia coli D21 it was at least 64 µM.
With `CC(C)[C@H](NC(=O)[C@H](CCCCN)NC(=O)CNC(=O)CNC(=O)[C@H](CCC(N)=O)NC(=O)[C@H](CCCCN)NC(=O)CNC(=O)[C@H](CCCN=C(N)N)NC(=O)CNC(=O)[C@@H](N)CO)C(=O)N[C@@H](CCCN=C(N)N)C(=O)N[C@@H](C)C(=O)N[C@@H](CCCCN)C(=O)N[C@@H](C)C(=O)N[C@@H](CCCCN)C(=O)N[C@H](C(=O)N[C@@H](CCCN=C(N)N)C(=O)N[C@@H](CO)C(=O)N[C@@H](CO)C(=O)O)[C@@H](C)O` [SGRGKQGGKVRAKAKTRSS], the minimal inhibitory concentration (MIC) in test [14] was 16.3 µM (≈ 32 µg/mL); in test [15] it was 8.17 µM (≈ 16 µg/mL); in [16] it was 16.3 µM (≈ 32 µg/mL); in [17], 8.17 µM (≈ 16 µg/mL); in test [18], 2.04 µM (≈ 4 µg/mL); in test [19], 8.17 µM (≈ 16 µg/mL). The MIC in test [20] was 2.04 µM (≈ 4 µg/mL); in test [21], 16.3 µM (≈ 32 µg/mL); in test [22], 4.08 µM (≈ 8 µg/mL).
Regarding `CC[C@H](C)[C@H](NC(=O)[C@@H]1CCCN1C(=O)[C@H](Cc1c[nH]c2ccccc12)NC(=O)[C@H](CCC(N)=O)NC(=O)[C@H](CCCN=C(N)N)NC(=O)[C@@H](NC(=O)[C@@H](NC(=O)[C@@H](N)CCCN=C(N)N)C(C)C)C(C)C)C(=O)NCC(=O)N[C@@H](CCCN=C(N)N)C(=O)N[C@H](C(=O)N[C@H](C(=O)N[C@@H](CCCN=C(N)N)C(=O)N[C@@H](CCCN=C(N)N)C(=O)N[C@H](C(=O)N[C@H](C(=O)N[C@@H](CCCN=C(N)N)C(=O)N[C@@H](CCCN=C(N)N)C(=O)N[C@H](C(=O)N[C@H](C(=O)N[C@@H](CCCN=C(N)N)C(=O)N[C@@H](Cc1ccccc1)C(=O)O)C(C)C)C(C)C)C(C)C)C(C)C)C(C)C)C(C)C` [RVVRQWPIGRVVRRVVRRVVRF], the MIC is 0.179 µM (≈ 0.5 µg/mL) in test [14]; 0.179 µM (≈ 0.5 µg/mL) in test [15]; 0.717 µM (≈ 2 µg/mL) in [16]; 0.717 µM (≈ 2 µg/mL) in test [17]; 0.717 µM (≈ 2 µg/mL) in [18]; 1.43 µM (≈ 4 µg/mL) in [19]. The MIC in test [21] stood at 0.717 µM (≈ 2 µg/mL); in test [22] it was 1.43 µM (≈ 4 µg/mL).
On to `CC[C@H](C)[C@H](NC(=O)[C@H](CCCCN)NC(=O)[C@H](CO)NC(=O)[C@H](Cc1ccccc1)NC(=O)[C@H](CC(C)C)NC(=O)[C@H](CCCCN)NC(=O)[C@H](CCC(=O)O)NC(=O)[C@H](CC(C)C)NC(=O)[C@H](CCCN=C(N)N)NC(=O)[C@H](CCCCN)NC(=O)[C@H](Cc1ccccc1)NC(=O)[C@@H](NC(=O)[C@@H](N)CCCCN)C(C)C)C(N)=O` [KVFKRLEKLFSKI], for which the MIC is 1.56 µM (≈ 2.55 µg/mL) in test [23]; 3.12 µM (≈ 5.11 µg/mL) in test [24]; 8.84 µM (≈ 14.5 µg/mL) in test [25]; 2.21 µM (≈ 3.61 µg/mL) in test [26]; 1.56 µM (≈ 2.55 µg/mL) in test [27]; 25 µM (≈ 40.9 µg/mL) in test [28]. Besides, the values for the MIC in [29], in [30] and in test [31] were 6.25 µM (≈ 10.2 µg/mL), 6.25 µM (≈ 10.2 µg/mL) and 0.78 µM (≈ 1.28 µg/mL), respectively.
